According to ChEMBL document CHEMBL5291721, “A preclinical secondary pharmacology resource illuminates target-adverse drug reaction associations of marketed drugs” (Nat Commun, 2023):

Legend:
[1] = target: Voltage-gated inwardly rectifying potassium channel KCNH2 (Homo sapiens, UniProt Q12809); format: functional
Acetylcholinesterase = Acetylcholinesterase (Homo sapiens, UniProt P22303); format: functional
[2] = target: T1, Alpha-2A adrenergic receptor (Homo sapiens, UniProt P08913)
T1 sequence (P08913 whole entry): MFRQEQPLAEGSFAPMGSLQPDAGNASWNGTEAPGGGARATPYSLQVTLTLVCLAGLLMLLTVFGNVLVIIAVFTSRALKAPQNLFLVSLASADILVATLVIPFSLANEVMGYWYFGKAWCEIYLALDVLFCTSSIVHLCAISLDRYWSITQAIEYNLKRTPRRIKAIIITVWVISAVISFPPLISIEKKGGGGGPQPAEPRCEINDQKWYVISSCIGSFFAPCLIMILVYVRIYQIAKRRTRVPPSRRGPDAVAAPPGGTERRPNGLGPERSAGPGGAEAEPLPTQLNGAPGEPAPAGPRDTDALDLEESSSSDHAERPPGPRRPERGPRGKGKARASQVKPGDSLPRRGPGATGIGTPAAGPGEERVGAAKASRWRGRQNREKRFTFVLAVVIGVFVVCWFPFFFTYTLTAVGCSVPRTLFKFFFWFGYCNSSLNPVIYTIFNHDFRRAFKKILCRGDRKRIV

[3] = target: T2, Muscarinic acetylcholine receptor M2 (Homo sapiens, UniProt P08172)
T2 sequence (P08172 whole entry): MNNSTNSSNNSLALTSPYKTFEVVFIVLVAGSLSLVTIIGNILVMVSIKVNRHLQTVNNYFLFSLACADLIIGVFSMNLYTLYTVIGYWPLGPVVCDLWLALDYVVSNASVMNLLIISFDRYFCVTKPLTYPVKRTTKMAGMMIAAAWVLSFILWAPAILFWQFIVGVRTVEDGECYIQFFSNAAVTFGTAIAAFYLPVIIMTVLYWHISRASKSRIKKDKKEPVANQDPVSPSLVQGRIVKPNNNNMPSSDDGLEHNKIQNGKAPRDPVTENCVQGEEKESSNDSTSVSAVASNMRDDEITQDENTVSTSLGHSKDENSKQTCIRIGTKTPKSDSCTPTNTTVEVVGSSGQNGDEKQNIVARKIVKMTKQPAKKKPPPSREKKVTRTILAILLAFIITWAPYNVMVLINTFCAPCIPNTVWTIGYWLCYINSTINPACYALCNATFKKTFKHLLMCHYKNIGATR

Prothrombin = Prothrombin (Homo sapiens, UniProt P00734); format: functional
Histamine H3 receptor = Histamine H3 receptor (Homo sapiens, UniProt Q9Y5N1)
[4] = target: T3, 5-hydroxytryptamine receptor 1A (Homo sapiens, UniProt P08908)
T3 sequence (P08908 whole entry): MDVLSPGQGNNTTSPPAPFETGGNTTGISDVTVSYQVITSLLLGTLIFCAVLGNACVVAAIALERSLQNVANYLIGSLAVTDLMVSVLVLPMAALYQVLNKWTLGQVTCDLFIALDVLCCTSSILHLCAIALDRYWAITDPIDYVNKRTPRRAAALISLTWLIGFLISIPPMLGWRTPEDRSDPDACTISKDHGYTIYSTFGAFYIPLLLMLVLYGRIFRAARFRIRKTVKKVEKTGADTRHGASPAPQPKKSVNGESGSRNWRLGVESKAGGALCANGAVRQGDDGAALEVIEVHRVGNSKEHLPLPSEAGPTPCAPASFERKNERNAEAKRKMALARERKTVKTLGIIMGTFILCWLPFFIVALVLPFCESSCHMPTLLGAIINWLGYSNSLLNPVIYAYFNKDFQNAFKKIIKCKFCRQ

[5] = target: 5-hydroxytryptamine receptor 2B (Homo sapiens, UniProt P41595); format: functional, cell-based
[6] = target: T4, Amine oxidase [flavin-containing] A (Homo sapiens, UniProt P21397); format: functional
T4 sequence (P21397 whole entry): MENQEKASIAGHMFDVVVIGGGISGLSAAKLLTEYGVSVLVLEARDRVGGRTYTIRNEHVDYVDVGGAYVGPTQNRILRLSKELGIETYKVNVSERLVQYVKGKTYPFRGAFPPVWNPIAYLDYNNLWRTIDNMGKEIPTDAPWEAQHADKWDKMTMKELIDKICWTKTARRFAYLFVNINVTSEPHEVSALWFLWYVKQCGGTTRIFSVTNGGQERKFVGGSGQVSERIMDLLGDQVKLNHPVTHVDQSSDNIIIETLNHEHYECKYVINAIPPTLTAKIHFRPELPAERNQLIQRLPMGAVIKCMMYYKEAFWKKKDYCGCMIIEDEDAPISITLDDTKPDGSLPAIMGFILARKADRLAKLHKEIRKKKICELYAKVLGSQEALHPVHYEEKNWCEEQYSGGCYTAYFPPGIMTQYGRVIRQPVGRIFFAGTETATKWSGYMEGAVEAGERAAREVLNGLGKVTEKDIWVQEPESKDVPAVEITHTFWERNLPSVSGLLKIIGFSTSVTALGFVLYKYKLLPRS

[7] = target: cGMP-inhibited 3',5'-cyclic phosphodiesterase 3A (Homo sapiens, UniProt Q14432); format: functional
[8] = target: 3',5'-cyclic-AMP phosphodiesterase 4A (Homo sapiens, UniProt P27815); format: functional
[9] = target: Sodium-dependent dopamine transporter (Homo sapiens, UniProt Q01959)
Thromboxane A2 receptor [10] = target: T5, Thromboxane A2 receptor (Homo sapiens, UniProt P21731); format: functional, cell-based
T5 sequence (P21731 whole entry): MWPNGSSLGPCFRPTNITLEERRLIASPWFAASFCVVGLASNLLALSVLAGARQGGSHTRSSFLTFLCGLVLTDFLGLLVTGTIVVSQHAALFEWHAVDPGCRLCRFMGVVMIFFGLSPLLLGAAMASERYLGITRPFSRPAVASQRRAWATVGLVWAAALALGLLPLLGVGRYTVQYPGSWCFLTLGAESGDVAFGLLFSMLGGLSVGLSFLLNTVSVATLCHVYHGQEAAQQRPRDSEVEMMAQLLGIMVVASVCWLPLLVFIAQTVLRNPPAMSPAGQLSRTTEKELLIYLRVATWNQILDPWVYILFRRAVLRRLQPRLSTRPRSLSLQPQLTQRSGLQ

Thromboxane A2 receptor [11] = target: T5, Thromboxane A2 receptor; format: functional, cell-based; remark: listed apart in the source
Also: assay procedure not described here.

Sequence of Acetylcholinesterase (P22303 whole entry): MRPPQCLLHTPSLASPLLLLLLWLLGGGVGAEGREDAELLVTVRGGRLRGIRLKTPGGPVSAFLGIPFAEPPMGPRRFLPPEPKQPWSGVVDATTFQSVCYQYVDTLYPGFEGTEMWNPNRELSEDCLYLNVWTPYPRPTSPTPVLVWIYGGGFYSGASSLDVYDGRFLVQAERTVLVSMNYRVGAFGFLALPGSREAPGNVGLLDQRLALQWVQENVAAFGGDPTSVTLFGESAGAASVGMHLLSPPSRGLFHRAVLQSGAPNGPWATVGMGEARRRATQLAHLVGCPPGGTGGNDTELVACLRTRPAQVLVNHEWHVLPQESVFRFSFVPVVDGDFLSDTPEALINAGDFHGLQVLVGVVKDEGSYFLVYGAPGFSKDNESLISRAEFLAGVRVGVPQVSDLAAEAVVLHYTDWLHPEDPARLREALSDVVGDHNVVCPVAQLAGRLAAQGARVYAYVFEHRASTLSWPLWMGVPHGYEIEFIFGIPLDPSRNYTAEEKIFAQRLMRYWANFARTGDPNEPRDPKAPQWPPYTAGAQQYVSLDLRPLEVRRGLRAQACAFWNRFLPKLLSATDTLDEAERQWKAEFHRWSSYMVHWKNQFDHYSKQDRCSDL
Sequence of Voltage-gated inwardly rectifying potassium channel KCNH2 (Q12809 whole entry): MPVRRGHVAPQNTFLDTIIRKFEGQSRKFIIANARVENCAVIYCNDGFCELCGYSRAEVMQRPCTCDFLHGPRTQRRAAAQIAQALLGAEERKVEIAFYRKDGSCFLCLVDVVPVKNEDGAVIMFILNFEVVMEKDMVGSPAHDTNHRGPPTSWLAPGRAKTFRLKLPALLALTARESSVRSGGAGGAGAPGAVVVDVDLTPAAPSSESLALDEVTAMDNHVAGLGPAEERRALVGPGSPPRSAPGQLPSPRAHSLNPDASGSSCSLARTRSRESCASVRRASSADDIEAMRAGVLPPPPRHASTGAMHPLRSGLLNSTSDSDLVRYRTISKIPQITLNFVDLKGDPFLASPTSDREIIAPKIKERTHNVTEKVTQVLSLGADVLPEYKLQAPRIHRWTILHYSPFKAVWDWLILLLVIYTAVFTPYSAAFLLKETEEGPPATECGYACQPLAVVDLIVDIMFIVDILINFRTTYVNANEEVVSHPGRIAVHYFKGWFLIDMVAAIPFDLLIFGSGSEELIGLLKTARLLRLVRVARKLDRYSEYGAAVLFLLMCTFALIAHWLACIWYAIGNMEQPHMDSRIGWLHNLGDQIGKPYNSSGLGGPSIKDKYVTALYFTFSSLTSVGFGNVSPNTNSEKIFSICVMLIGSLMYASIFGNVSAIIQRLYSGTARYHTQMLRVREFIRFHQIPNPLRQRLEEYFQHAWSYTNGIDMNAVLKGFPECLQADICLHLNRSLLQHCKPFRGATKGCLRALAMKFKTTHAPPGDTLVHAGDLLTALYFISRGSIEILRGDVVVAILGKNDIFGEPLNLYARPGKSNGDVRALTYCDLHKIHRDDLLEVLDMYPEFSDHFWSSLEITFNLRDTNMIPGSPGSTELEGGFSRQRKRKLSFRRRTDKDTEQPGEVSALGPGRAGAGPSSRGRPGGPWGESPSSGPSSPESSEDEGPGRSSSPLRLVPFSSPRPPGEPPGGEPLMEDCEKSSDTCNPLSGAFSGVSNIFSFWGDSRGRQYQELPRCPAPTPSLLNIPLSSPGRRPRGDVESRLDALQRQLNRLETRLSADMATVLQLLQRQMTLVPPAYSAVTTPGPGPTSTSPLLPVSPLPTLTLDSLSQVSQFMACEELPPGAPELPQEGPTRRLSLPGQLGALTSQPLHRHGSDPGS
Sequence of Sodium-dependent dopamine transporter (Q01959 whole entry): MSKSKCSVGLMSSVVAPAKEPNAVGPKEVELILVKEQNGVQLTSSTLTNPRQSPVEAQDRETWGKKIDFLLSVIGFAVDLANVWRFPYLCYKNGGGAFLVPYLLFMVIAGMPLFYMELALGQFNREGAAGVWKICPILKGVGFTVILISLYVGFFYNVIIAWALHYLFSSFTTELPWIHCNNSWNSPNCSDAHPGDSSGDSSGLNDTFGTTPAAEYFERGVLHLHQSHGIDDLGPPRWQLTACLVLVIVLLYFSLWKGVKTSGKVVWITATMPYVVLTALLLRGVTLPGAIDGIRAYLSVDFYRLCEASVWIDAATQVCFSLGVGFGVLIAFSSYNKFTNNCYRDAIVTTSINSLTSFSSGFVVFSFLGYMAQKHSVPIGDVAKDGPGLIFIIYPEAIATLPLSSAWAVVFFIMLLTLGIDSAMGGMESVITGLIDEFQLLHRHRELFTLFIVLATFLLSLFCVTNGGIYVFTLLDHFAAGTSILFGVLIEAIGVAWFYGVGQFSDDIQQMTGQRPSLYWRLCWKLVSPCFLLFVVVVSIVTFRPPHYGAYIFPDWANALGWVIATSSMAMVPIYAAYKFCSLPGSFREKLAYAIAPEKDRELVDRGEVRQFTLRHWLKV
Sequence of cGMP-inhibited 3',5'-cyclic phosphodiesterase 3A (Q14432 whole entry): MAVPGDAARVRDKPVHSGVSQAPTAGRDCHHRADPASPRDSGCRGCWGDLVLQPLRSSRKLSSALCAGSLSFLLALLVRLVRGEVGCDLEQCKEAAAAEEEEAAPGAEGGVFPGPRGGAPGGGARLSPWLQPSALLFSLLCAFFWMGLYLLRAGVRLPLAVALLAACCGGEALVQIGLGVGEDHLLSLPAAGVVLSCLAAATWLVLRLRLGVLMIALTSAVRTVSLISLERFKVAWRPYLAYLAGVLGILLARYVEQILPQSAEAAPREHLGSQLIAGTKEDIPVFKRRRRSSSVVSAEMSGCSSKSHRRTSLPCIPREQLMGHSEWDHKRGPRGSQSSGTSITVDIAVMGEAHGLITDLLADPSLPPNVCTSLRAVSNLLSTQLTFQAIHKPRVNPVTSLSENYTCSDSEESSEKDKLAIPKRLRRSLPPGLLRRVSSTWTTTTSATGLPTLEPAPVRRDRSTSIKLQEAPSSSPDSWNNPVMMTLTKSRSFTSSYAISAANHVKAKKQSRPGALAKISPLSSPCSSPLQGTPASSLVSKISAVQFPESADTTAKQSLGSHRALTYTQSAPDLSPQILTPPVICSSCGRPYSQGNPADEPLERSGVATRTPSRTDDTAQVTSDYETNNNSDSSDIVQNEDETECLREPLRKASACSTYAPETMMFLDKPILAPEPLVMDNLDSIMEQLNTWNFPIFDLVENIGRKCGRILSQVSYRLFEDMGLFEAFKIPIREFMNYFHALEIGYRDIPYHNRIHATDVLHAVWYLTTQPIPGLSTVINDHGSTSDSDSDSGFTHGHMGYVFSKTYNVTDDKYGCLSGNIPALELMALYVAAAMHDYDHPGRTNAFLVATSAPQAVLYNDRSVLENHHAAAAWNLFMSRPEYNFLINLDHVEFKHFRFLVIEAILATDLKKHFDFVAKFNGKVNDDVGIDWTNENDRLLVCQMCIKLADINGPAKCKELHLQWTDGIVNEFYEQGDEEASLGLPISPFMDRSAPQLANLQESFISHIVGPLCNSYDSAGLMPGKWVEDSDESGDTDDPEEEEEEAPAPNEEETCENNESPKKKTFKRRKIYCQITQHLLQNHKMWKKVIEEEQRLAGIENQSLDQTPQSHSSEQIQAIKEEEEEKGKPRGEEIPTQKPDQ
Sequence of 3',5'-cyclic-AMP phosphodiesterase 4A (P27815 whole entry): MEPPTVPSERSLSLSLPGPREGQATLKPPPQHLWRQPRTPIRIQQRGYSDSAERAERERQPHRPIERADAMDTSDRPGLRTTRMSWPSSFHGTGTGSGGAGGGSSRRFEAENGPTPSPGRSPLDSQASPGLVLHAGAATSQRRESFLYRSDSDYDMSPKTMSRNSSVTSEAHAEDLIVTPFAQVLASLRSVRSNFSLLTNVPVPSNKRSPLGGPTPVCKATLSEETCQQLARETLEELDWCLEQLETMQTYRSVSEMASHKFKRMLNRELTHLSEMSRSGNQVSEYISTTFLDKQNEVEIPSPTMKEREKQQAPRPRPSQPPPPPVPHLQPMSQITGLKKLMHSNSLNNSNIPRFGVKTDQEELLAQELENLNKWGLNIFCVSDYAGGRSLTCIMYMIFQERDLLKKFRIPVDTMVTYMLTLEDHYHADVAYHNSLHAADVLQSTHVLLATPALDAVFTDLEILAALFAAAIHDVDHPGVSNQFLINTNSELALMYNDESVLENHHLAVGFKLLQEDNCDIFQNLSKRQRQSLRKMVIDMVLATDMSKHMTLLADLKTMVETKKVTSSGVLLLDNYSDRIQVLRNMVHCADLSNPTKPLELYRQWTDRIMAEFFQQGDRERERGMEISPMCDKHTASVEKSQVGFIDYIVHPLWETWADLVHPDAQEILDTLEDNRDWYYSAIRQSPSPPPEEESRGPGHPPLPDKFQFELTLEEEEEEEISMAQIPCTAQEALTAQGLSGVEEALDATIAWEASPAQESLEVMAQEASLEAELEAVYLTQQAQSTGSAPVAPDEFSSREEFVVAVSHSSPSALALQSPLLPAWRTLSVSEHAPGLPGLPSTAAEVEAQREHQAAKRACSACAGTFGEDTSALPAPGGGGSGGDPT
Sequence of Histamine H3 receptor (Q9Y5N1 whole entry): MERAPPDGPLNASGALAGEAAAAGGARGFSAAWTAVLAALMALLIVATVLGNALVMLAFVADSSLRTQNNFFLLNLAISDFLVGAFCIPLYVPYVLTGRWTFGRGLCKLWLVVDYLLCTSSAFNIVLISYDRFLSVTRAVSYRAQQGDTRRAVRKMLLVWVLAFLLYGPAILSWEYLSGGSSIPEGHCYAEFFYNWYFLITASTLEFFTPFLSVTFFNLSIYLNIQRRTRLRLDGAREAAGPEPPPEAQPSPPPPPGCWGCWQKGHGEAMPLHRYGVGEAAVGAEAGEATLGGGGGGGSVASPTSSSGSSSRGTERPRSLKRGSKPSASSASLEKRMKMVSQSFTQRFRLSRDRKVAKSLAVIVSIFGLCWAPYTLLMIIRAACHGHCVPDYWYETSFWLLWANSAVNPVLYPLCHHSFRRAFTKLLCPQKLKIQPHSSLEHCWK

`C[N+]1(C)CCC(=C(c2ccccc2)c2ccccc2)CC1` was tested, and the AC50 [1] was 0.187 µM.
In the case of `C[N+](C)(C)CCOP(=O)([O-])OC[C@H](O)CO`, the AC50 [1] is reported as > 30 µM.
In the case of `C[C@H](N[C@@H](CCc1ccccc1)C(=O)O)C(=O)N1Cc2ccccc2C[C@H]1C(=O)O`, the AC50 (Acetylcholinesterase) is reported as > 30 µM, the AC50 [2] is reported as > 30 µM and the AC50 [3] is reported as > 30 µM. For the same compound, the AC50 (Prothrombin) was > 30 µM, the AC50 (Histamine H3 receptor) was > 30 µM and the AC50 [4] was > 30 µM. The AC50 [5] was > 30 µM, the AC50 [6] was > 30 µM and the AC50 [7] was > 30 µM. The AC50 [8] was > 30 µM, the AC50 [9] was > 30 µM and the AC50 (Thromboxane A2 receptor [10]) was > 30 µM. The AC50 (Thromboxane A2 receptor [11]) was > 30 µM.
With `CN(C)Cc1nnc2n1-c1ccc(Cl)cc1C(c1ccccc1)=NC2` [ADINAZOLAM] the AC50 [1] was > 30 µM.
`Cc1ccccc1-n1c(CF)nc2ccc(N)cc2c1=O` [AFLOQUALONE] was tested, and the AC50 [1] was > 30 µM.
In the case of `CC1(C)S[C@@H]2[C@H](/N=C/N3CCCCCC3)C(=O)N2[C@H]1C(=O)O` [AMDINOCILLIN], the AC50 (Acetylcholinesterase) is reported as > 30 µM, the AC50 [2] is reported as > 30 µM and the AC50 [3] is reported as > 30 µM. For the same compound, the AC50 (Prothrombin) was > 30 µM, the AC50 (Histamine H3 receptor) was > 30 µM and the AC50 [4] was > 30 µM. The AC50 [5] was > 30 µM, the AC50 [6] was > 30 µM and the AC50 [7] was > 30 µM. For the same compound, the AC50 [8] was > 30 µM, the AC50 [9] was > 30 µM and the AC50 (Thromboxane A2 receptor [10]) was > 30 µM. The AC50 (Thromboxane A2 receptor [11]) was > 30 µM.
For `CCC1(c2ccc(N)cc2)CCC(=O)NC1=O` (stereo not drawn) [AMINOGLUTETHIMIDE], the AC50 [1] was > 30 µM.
With `CC(=O)[C@]1(N)Cc2c(O)c3c(c(O)c2[C@@H](O[C@H]2C[C@H](O)[C@H](O)CO2)C1)C(=O)c1ccccc1C3=O` [AMRUBICIN] the AC50 (Acetylcholinesterase) was > 30 µM, the AC50 [2] was > 30 µM and the AC50 [3] was > 30 µM. The AC50 (Prothrombin) was > 30 µM, the AC50 (Histamine H3 receptor) was > 30 µM and the AC50 [4] was > 30 µM. For the same compound, the AC50 [5] was > 30 µM, the AC50 [6] was > 30 µM and the AC50 [7] was > 30 µM. For the same compound, the AC50 [8] was > 30 µM, the AC50 [9] was > 30 µM and the AC50 (Thromboxane A2 receptor [10]) was 11.8 µM. The AC50 (Thromboxane A2 receptor [11]) was > 1 µM.
`CC(=O)OC[C@H]1O[C@@H](n2ncc(=O)[nH]c2=O)[C@H](OC(C)=O)[C@@H]1OC(C)=O` [AZARIBINE] was tested, and the AC50 (Acetylcholinesterase) was > 30 µM, the AC50 [2] was > 30 µM and the AC50 [3] was > 30 µM. The AC50 (Prothrombin) was > 30 µM, the AC50 (Histamine H3 receptor) was > 30 µM and the AC50 [4] was > 30 µM. For the same compound, the AC50 [5] was > 30 µM, the AC50 [6] was > 30 µM and the AC50 [7] was > 30 µM. For the same compound, the AC50 [8] was > 30 µM, the AC50 [9] was > 30 µM and the AC50 (Thromboxane A2 receptor [10]) was > 30 µM. For the same compound, the AC50 (Thromboxane A2 receptor [11]) was > 30 µM.
With `CC1=C(C(=O)OC(C)C)C(c2cccc([N+](=O)[O-])c2)C(C(=O)OC2CN(C(c3ccccc3)c3ccccc3)C2)=C(N)N1` (stereo not drawn) [AZELNIDIPINE] the AC50 [1] was > 30 µM.
`CC(Cc1cccc(C(F)(F)F)c1)NCCOC(=O)c1ccccc1` (stereo not drawn) [BENFLUOREX] showed an AC50 [1] of 5.6 µM.
With `CCOC(=O)c1ccc(N)cc1` [BENZOCAINE] the AC50 [1] was > 30 µM.
With `CC(C)(Oc1ccc(CCNC(=O)c2ccc(Cl)cc2)cc1)C(=O)O` [BEZAFIBRATE] the AC50 [1] was > 30 µM.
For `O=C(O)COCCN1CCN(C(c2ccccc2)c2ccc(Cl)cc2)CC1` (stereo not drawn) [CETIRIZINE], the AC50 [2] was > 30 µM, the AC50 (Prothrombin) was > 30 µM and the AC50 (Histamine H3 receptor) was > 30 µM. For the same compound, the AC50 [4] was > 30 µM, the AC50 [6] was > 30 µM and the AC50 [7] was > 30 µM. For the same compound, the AC50 [8] was > 30 µM, the AC50 (Thromboxane A2 receptor [10]) was > 30 µM and the AC50 (Thromboxane A2 receptor [11]) was > 30 µM.
For `C/C=C(/C(=C/C)c1ccc(O)cc1)c1ccc(O)cc1` [DIENESTROL], the AC50 [1] was > 30 µM.
`CN[C@]1(c2ccccc2Cl)CCCCC1=O` [ESKETAMINE] was tested, and the AC50 [1] was > 30 µM.
With `COc1ccc([C@@H]2CC(=O)c3c(O)cc(O)cc3O2)cc1O` [HESPERETIN] the AC50 [1] was > 30 µM.
